Measurements taken from paper PMC5201331, “Subchronic Toxicities of HZ1006, a Hydroxamate-Based Histone Deacetylase Inhibitor, in Beagle Dogs and Sprague-Dawley Rats” (International Journal of Environmental Research and Public …, 2016).

Tested on: Beagle dogs
Experiment: Subchronic toxicity test in Beagle dogs: serum biochemistry
Assay type: in vivo
Description: HZ1006 was administered orally to dogs (four/sex/group) at doses of 80, 40, 20, 5 and 0 (control) mg/kg/day, and the dosage volume was 2 mL/kg. The dogs received test doses with the exact amounts on a weekly basis based on current body weights. […] The other dogs in the above groups were dissected on the planned days. For the other groups, half of the dogs were anatomized on d28 and the remaining half on d42.
The following indexes were examined for the dogs used in the study, twice during the pre-dosage period and on d14, d28 and d42. The following parameters were evaluated on d28 and d42 for the rats in the study:
The animal blood samples were collected in the tubes containing the coagulator and centrifuged at 500 g for 10 min; the supernatant was then collected into a new tube. The serum biochemistry indexes included the following: alanine aminotransferase (ALT), alkaline phosphatase (ALP), aspartate aminotransferase (AST), blood urea (BU), lactate dehydrogenase (LDH), total bilirubin (TBIL), creatinine (Crea), albumin (ALB), total protein (TP), triglycerides (TG), total cholesterol (TCH), γ-glutamyltranspeptidase (g-GT), glucose (GLU), creatine phosphokinase (CPK), uric acid (UA), phosphorus (P), and calcium (Ca^2+). The above parameters were analyzed using an Automatic Analyzer 7080 provided by Hitachi High-Technologies Corp. (Tokyo, Japan). An Na/K/Cl Analyzer EasyLyte PLUS from Medica Corp. (Bedford, MA, USA), was used to determine the levels of chloride (Cl^−), sodium (Na^+) and potassium (K^+) in the blood samples.

[1] = dog ♀6 (80 mg/kg/day oral), d0 (pre-dose)
[2] = dog ♀6 (80 mg/kg/day oral), d14 line (moribund, euthanized d8)
[3] = dog ♀28 (40 mg/kg/day oral), d0 (pre-dose)
[4] = dog ♀28 (40 mg/kg/day oral), d14 (died d16)
[5] = dogs, 5 mg/kg/day oral, d0 (pre-dose)
[6] = dogs, 5 mg/kg/day oral, d42 (recovery)
[7] = dogs, 20 mg/kg/day oral, d0 (pre-dose)

Compound: CCCCCCCNc1cc(/C=C/C(=O)NO)ccc1OCCN(CC)CC [HZ1006]
- ALP: Alkaline phosphatase [1]: 1.50 µmol/s/L
- ALT: Alanine aminotransferase [1]: 487 nmol/s/L
- AST: Aspartate aminotransferase [1]: 456 nmol/s/L
- BU: Blood urea [1]: 4.04 mmol/L
- CPK: Creatine phosphokinase [1]: 3.06 µmol/s/L
- CREA: Creatinine [1]: 52.8 µmol/L
- LDH: Lactate dehydrogenase [1]: 2.78 µmol/s/L
- TBIL: Total bilirubin [1]: 2.95 µmol/L
- TCH: Total cholesterol [1]: 3.27 mmol/L
- ALP: Alkaline phosphatase [2]: 3.86 µmol/s/L
- ALT: Alanine aminotransferase [2]: 466 nmol/s/L
- AST: Aspartate aminotransferase [2]: 1907 nmol/s/L
- BU: Blood urea [2]: 15.20 mmol/L
- CPK: Creatine phosphokinase [2]: 57.57 µmol/s/L
- CREA: Creatinine [2]: 82.4 µmol/L
- LDH: Lactate dehydrogenase [2]: 2.91 µmol/s/L
- TBIL: Total bilirubin [2]: 11.53 µmol/L
- TCH: Total cholesterol [2]: 11.04 mmol/L
- TG: Triglycerides (dog ♀6 (80 mg/kg/day oral), printed in d0 line): 1.60 mmol/L
- TCH: Total cholesterol (dog ♀6 (80 mg/kg/day oral), printed in d42 line): 0.31 mmol/L
- ALP: Alkaline phosphatase [3]: 1.33 µmol/s/L
- ALT: Alanine aminotransferase [3]: 428 nmol/s/L
- AST: Aspartate aminotransferase [3]: 398 nmol/s/L
- BU: Blood urea [3]: 4.08 mmol/L
- CPK: Creatine phosphokinase [3]: 2.47 µmol/s/L
- CREA: Creatinine [3]: 47.9 µmol/L
- LDH: Lactate dehydrogenase [3]: 2.21 µmol/s/L
- TBIL: Total bilirubin [3]: 2.18 µmol/L
- TCH: Total cholesterol [3]: 5.85 mmol/L
- ALP: Alkaline phosphatase [4]: 3.16 µmol/s/L
- ALT: Alanine aminotransferase [4]: 852 nmol/s/L
- AST: Aspartate aminotransferase [4]: 4924 nmol/s/L
- BU: Blood urea [4]: 4.89 mmol/L
- CPK: Creatine phosphokinase [4]: 6.39 µmol/s/L
- CREA: Creatinine [4]: 37.8 µmol/L
- LDH: Lactate dehydrogenase [4]: 2.06 µmol/s/L
- TBIL: Total bilirubin [4]: 9.65 µmol/L
- TCH: Total cholesterol [4]: 10.73 mmol/L
- ALP: Alkaline phosphatase [5]: 1.47 ± 0.30 µmol/s/L
- ALT: Alanine aminotransferase [5]: 559 ± 120 nmol/s/L
- AST: Aspartate aminotransferase [5]: 463 ± 106 nmol/s/L
- BU: Blood urea [5]: 4.03 ± 0.52 mmol/L
- CPK: Creatine phosphokinase [5]: 2.94 ± 1.40 µmol/s/L
- CREA: Creatinine [5]: 51.5 ± 9.3 µmol/L
- LDH: Lactate dehydrogenase [5]: 3.08 ± 1.36 µmol/s/L
- TBIL: Total bilirubin [5]: 2.34 ± 0.31 µmol/L
- TCH: Total cholesterol [5]: 4.28 ± 0.36 mmol/L
- TG: Triglycerides [5]: 0.43 ± 0.11 mmol/L
- ALP: Alkaline phosphatase (dogs, 5 mg/kg/day oral, d14): 1.45 ± 0.35 µmol/s/L
- ALT: Alanine aminotransferase (dogs, 5 mg/kg/day oral, d14): 521 ± 116 nmol/s/L
- AST: Aspartate aminotransferase (dogs, 5 mg/kg/day oral, d14): 442 ± 105 nmol/s/L
- BU: Blood urea (dogs, 5 mg/kg/day oral, d14): 4.10 ± 0.90 mmol/L
- CPK: Creatine phosphokinase (dogs, 5 mg/kg/day oral, d14): 2.63 ± 1.36 µmol/s/L
- CREA: Creatinine (dogs, 5 mg/kg/day oral, d14): 51.0 ± 9.9 µmol/L
- LDH: Lactate dehydrogenase (dogs, 5 mg/kg/day oral, d14): 2.27 ± 1.24 µmol/s/L
- TBIL: Total bilirubin (dogs, 5 mg/kg/day oral, d14): 2.01 ± 0.41 µmol/L
- TCH: Total cholesterol (dogs, 5 mg/kg/day oral, d14): 3.98 ± 0.64 mmol/L
- TG: Triglycerides (dogs, 5 mg/kg/day oral, d14): 0.39 ± 0.08 mmol/L
- ALP: Alkaline phosphatase (dogs, 5 mg/kg/day oral, d28): 1.51 ± 0.29 µmol/s/L
- ALT: Alanine aminotransferase (dogs, 5 mg/kg/day oral, d28): 593 ± 105 nmol/s/L
- AST: Aspartate aminotransferase (dogs, 5 mg/kg/day oral, d28): 424 ± 109 nmol/s/L
- BU: Blood urea (dogs, 5 mg/kg/day oral, d28): 3.82 ± 0.51 mmol/L
- CPK: Creatine phosphokinase (dogs, 5 mg/kg/day oral, d28): 2.43 ± 0.19 µmol/s/L
- CREA: Creatinine (dogs, 5 mg/kg/day oral, d28): 51.4 ± 10.9 µmol/L
- LDH: Lactate dehydrogenase (dogs, 5 mg/kg/day oral, d28): 2.71 ± 1.12 µmol/s/L
- TBIL: Total bilirubin (dogs, 5 mg/kg/day oral, d28): 2.08 ± 0.52 µmol/L
- TCH: Total cholesterol (dogs, 5 mg/kg/day oral, d28): 4.24 ± 0.56 mmol/L
- TG: Triglycerides (dogs, 5 mg/kg/day oral, d28): 0.35 ± 0.11 mmol/L
- ALP: Alkaline phosphatase [6]: 1.45 ± 0.37 µmol/s/L
- ALT: Alanine aminotransferase [6]: 558 ± 90 nmol/s/L
- AST: Aspartate aminotransferase [6]: 451 ± 79 nmol/s/L
- BU: Blood urea [6]: 4.83 ± 0.20 mmol/L
- CPK: Creatine phosphokinase [6]: 2.97 ± 0.18 µmol/s/L
- CREA: Creatinine [6]: 55.6 ± 4.5 µmol/L
- LDH: Lactate dehydrogenase [6]: 2.21 ± 1.32 µmol/s/L
- TBIL: Total bilirubin [6]: 2.01 ± 0.33 µmol/L
- TCH: Total cholesterol [6]: 3.99 ± 0.41 mmol/L
- TG: Triglycerides [6]: 0.31 ± 0.09 mmol/L
- ALP: Alkaline phosphatase [7]: 1.48 ± 0.48 µmol/s/L
- ALT: Alanine aminotransferase [7]: 535 ± 92 nmol/s/L
- AST: Aspartate aminotransferase [7]: 456 ± 92 nmol/s/L
- BU: Blood urea [7]: 4.35 ± 0.98 mmol/L
- CPK: Creatine phosphokinase [7]: 2.98 ± 0.64 µmol/s/L
- CREA: Creatinine [7]: 51.6 ± 7.5 µmol/L
- LDH: Lactate dehydrogenase [7]: 2.85 ± 0.86 µmol/s/L
- TBIL: Total bilirubin [7]: 2.55 ± 0.28 µmol/L
- TCH: Total cholesterol [7]: 4.31 ± 0.36 mmol/L
- TG: Triglycerides [7]: 0.42 ± 0.09 mmol/L
- ALP: Alkaline phosphatase (dogs, 20 mg/kg/day oral, d14): 0.85 ± 0.25 µmol/s/L
- ALT: Alanine aminotransferase (dogs, 20 mg/kg/day oral, d14): 425 ± 105 nmol/s/L
- AST: Aspartate aminotransferase (dogs, 20 mg/kg/day oral, d14): 384 ± 56 nmol/s/L
- BU: Blood urea (dogs, 20 mg/kg/day oral, d14): 4.52 ± 1.05 mmol/L
- CPK: Creatine phosphokinase (dogs, 20 mg/kg/day oral, d14): 2.43 ± 0.48 µmol/s/L
- CREA: Creatinine (dogs, 20 mg/kg/day oral, d14): 58.6 ± 10.6 µmol/L
- LDH: Lactate dehydrogenase (dogs, 20 mg/kg/day oral, d14): 1.23 ± 0.45 µmol/s/L
- TBIL: Total bilirubin (dogs, 20 mg/kg/day oral, d14): 1.85 ± 0.16 µmol/L
- TCH: Total cholesterol (dogs, 20 mg/kg/day oral, d14): 3.16 ± 0.34 mmol/L
- TG: Triglycerides (dogs, 20 mg/kg/day oral, d14): 0.29 ± 0.08 mmol/L
